# Reference: ChEMBL document CHEMBL1201862, “PubChem BioAssay data set” (2004)
# Activity calls are given as the source filed them.
# Columns and labels:
# [1] = alpha-synuclein stem-loop luciferase translation blockers – H4 neuroglioma cells, luminescence, confirmation (AID 1988); assay type: functional, cell-based
# [2] = Luminescence Cell-Based Dose Response HTS to Identify Inhibitors of 5'UTR Stem-Loop Driven Prion Protein mRNA Translation in H4 Neuroglioblastoma Cells. [Related pubchem assays: 1827 (Project Summary), 1813 (Primary HTS)]; assay type: functional
# [3] = cells; assay type: functional, cell-based
# [4] = biological target: Nuclear receptor subfamily 0 group B member 1 (Homo sapiens, UniProt P51843); assay type: functional, cell-based;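 also: HEK293T cells transfected with SF-1 and DAX-1 plus StAR promoter luciferase reporter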
# Nuclear receptor subfamily 0 group B member 1, sequence (P51843 whole entry): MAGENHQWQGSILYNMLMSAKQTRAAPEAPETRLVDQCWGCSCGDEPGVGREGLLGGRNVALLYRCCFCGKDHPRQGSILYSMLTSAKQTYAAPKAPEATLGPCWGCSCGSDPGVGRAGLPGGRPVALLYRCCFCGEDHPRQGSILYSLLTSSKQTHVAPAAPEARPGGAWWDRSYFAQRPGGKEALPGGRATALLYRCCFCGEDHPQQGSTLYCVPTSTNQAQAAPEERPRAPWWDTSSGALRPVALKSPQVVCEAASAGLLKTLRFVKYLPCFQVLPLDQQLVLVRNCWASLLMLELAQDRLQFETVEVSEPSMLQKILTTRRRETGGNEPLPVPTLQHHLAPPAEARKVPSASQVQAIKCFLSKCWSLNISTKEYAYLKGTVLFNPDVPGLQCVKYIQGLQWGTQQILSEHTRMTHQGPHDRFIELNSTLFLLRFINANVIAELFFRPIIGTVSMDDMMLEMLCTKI
# [5] = cells; assay type: functional, cell-based; remark: listed apart in the source
# [6] = cells; assay type: functional, cell-based; remark: listed apart in the source
# [7] = biological target: Fructose-bisphosphate aldolase (Mycobacterium tuberculosis, UniProt P9WQA3); assay: Fluorescence-based biochemical high throughput dose response assay for inhibitors of the fructose-bisphosphate aldolase (FBA) of M. tuberculosis.; assay type: functional
# Fructose-bisphosphate aldolase, sequence (P9WQA3 whole entry): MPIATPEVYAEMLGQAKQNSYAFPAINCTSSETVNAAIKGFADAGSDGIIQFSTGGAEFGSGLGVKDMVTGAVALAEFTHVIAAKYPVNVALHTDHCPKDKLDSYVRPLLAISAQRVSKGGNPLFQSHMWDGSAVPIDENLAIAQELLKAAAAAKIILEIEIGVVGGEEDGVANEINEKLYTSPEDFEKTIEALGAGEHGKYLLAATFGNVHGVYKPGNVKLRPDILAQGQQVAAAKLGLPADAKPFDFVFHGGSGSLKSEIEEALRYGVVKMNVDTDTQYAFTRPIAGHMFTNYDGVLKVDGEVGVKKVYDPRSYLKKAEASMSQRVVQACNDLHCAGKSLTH
# [8] = biological target: T1, Mannose-6-phosphate isomerase (Homo sapiens, UniProt P34949); assay: MPI enzyme activity inhibition – biochemical, fluorescence intensity, coupled assay, primary screen (AID 1209)
# T1 sequence (P34949 whole entry): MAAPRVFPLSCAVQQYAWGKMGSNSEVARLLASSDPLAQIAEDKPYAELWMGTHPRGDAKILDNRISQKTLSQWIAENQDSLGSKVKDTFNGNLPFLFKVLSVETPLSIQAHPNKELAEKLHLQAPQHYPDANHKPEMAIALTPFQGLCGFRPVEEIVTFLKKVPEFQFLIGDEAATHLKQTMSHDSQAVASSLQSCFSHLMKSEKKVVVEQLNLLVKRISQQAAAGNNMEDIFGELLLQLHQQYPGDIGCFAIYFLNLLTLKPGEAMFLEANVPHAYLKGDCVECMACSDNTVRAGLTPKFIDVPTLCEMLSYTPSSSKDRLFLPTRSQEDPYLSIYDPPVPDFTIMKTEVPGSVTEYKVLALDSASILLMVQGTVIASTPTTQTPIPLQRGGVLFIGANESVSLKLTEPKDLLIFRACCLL
# [9] = biological target: T2, Endoribonuclease toxin MazF (Escherichia coli K-12, UniProt P0AE70); assay: activation of MazEF endoribonuclease cleavage – biochemical, fluorescence, single-stranded RNA substrate, uHTS hits, dose response (AID 588481); assay type: functional
# T2 sequence (P0AE70 whole entry): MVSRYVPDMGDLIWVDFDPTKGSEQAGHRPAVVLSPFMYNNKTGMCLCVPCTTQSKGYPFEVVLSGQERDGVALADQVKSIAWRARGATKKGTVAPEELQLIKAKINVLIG
# [10] = tested on: Streptococcus; assay: GAS UMAA2166 growth inhibition – luminescence, BacTiterGlo, counter-screen for streptokinase expression inhibitor project, dose response (AID 1915); assay type: functional, organism-based;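 also: potency for reduction of bacterial viability or growth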
# [11] = biological target: T3, Streptokinase A (Streptococcus pyogenes serotype M1, UniProt P10520); assay: viability-normalized secreted streptokinase activity reduction – plasminogen activation absorbance, OD405, dose response (AID 1914); assay type: functional, Streptococcus pyogenes M1 GAS;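 also: secreted streptokinase activity via plasminogen activation per viability signal from cell pellet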
# T3 sequence (P10520 whole entry): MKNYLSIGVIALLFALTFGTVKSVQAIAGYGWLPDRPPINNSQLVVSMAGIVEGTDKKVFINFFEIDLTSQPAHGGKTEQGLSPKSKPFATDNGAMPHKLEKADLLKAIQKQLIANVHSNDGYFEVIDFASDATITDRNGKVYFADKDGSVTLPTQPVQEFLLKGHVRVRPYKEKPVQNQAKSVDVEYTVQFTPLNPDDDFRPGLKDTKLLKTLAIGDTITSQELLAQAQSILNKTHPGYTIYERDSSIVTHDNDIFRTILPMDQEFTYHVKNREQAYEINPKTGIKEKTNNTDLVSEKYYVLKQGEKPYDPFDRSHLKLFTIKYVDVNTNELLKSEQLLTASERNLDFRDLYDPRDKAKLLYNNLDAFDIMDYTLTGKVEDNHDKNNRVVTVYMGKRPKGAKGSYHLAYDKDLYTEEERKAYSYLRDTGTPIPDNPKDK
# [12] = biological target: Beta-galactosidase (Escherichia coli, UniProt Q8VNN2); assay: Dose response counterscreen for EBI2 assay utilizing the enzyme, b-galactosidase.; assay type: functional
# Beta-galactosidase, sequence (Q8VNN2 whole entry): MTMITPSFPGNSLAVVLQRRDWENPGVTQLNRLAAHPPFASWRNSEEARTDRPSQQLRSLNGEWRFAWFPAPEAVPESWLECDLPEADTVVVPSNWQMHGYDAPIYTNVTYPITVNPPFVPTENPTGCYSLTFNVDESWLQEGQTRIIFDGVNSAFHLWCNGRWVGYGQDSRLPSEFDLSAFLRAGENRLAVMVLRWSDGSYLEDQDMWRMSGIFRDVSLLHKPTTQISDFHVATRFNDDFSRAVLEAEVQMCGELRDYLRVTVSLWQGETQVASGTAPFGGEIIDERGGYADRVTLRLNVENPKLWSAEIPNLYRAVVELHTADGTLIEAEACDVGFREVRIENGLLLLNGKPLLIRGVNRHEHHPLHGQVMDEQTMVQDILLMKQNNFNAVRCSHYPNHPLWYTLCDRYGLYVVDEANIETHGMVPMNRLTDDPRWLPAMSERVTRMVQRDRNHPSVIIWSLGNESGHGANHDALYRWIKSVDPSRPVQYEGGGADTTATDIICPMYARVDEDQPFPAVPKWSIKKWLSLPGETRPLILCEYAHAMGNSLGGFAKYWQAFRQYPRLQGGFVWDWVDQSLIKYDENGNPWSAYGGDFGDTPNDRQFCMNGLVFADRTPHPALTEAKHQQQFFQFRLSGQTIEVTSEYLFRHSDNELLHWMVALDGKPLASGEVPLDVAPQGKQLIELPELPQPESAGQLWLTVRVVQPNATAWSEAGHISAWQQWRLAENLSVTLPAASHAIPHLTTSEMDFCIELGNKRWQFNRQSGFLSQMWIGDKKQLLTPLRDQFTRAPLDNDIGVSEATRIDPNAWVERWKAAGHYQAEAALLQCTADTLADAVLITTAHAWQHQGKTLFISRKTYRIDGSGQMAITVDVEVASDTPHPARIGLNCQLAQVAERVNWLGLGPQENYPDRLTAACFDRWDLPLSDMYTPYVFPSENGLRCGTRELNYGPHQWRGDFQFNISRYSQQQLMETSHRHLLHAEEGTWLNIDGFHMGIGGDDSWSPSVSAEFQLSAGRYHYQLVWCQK
# [13] = biological target: T4, Zinc finger protein mex-5 (Caenorhabditis elegans, UniProt Q9XUB2); assay: potency of MEX-5 RNA-binding blockers – biochemical, C. elegans, fluorescence polarization, dose response (AID 1960)
# T4 sequence (Q9XUB2 whole entry): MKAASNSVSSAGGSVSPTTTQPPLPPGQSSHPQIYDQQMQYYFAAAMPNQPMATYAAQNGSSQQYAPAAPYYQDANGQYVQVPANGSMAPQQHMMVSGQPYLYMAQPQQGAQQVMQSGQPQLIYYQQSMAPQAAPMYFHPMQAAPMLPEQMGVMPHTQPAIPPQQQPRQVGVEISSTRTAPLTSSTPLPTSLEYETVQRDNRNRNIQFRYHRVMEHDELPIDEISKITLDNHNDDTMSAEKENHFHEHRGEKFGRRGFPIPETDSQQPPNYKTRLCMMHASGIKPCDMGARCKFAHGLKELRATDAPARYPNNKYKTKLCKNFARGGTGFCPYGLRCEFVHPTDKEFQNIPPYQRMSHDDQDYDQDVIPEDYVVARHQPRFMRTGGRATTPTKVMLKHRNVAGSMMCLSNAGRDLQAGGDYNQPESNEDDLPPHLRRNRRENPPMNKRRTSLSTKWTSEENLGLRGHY
# [14] = biological target: T2, Endoribonuclease toxin MazF; assay: substrate-only fluorescence increase artefacts – biochemical, single-stranded RNase substrate, counter-screen for MazEF activator project, dose response (AID 588502); assay type: functional
# [15] = biological target: T5, RNA-binding protein pos-1 (Caenorhabditis elegans, UniProt G5EF15); assay: disruptors of C. elegans POS-1 RNA interaction – biochemical, fluorescence polarization, dose response (AID 1964);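 also: purified POS-1 fused to maltose binding protein made in E. coli; potency of compounds blocking POS-1 binding to fluorescent RNA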
# T5 sequence (G5EF15 whole entry): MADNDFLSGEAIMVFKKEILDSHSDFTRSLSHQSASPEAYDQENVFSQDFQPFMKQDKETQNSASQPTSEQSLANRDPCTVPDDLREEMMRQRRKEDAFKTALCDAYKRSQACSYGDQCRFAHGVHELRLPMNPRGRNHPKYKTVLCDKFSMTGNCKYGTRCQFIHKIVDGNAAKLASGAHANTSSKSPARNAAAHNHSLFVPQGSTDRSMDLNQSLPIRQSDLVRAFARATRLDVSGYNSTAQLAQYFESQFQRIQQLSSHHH
# [16] = viability loss in THP-1 monocytes – THP-1 cells, cytotoxicity control for Vif-APOBEC3G degradation inhibitor project, dose response (AID 1117359); assay type: functional; details: THP-1
# [17] = biological target: Heat shock protein HSP 90-alpha (Homo sapiens, UniProt P07900); assay: Luminescence-based dose response biochemical high throughput screening assay for inhibitors of the Heat Shock Protein 90 (HSP90). [Related pubchem assays: 1831 (Summary AID.), 1846 (Confirmation screen.), 1789 (Primary screen.)]
# [18] = viability loss in HepG2 hepatoma cells – cell-based, ATP luminescence, cherry-pick, activator set 2, cytotoxicity control, dose response (AID 1053143); assay type: functional
smiles,measurement,setting,value
Cc1ccc(-c2cc(C(=O)N3CCCC3)no2)cc1,EC50,[1],9.94 µM (inconclusive)
same,EC50,[2],2.79 µM (active)
same,IC50,[3],> 67.5 µM (inactive)
same,IC50,[4],> 67.5 µM (inactive)
Oc1ccnc(NCCc2ccccc2)n1,EC50,[5],> 29.9 µM (inactive)
same,IC50,[6],> 29.9 µM (inactive)
CCC(=O)Nc1ccc2c(c1)C(=O)N(C)C2=O,IC50,[7],4.38 µM (active)
COc1ccccc1N1C(=O)CC(Sc2n[nH]c(-c3cccc(C)c3)n2)C1=O (stereo not given),IC50,[8],48.1 µM (active)
COC(=O)/C=C1\C(=O)N(c2nc3ccccc3s2)C(=S)N1c1ccc(F)cc1,EC50,[9],> 99 µM (inactive)
same,EC50,[10],> 150 µM (not active)
same,EC50,[11],> 150 µM (not active)
same,IC50,[12],> 80 µM (inactive)
same,EC50,[13],> 300 µM (not active)
same,EC50,[14],> 99 µM (inactive)
same,EC50,[15],> 300 µM (not active)
CCOC(=O)c1c(S(=O)(=O)Nc2ccc(CN3CCC(C)CC3)cc2)c(C)n(C)c1C,IC50,[3],> 67.5 µM (inactive)
same,IC50,[4],> 67.5 µM (inactive)
Cc1ccc2c(c1)CCCN2C(=O)c1cc(C)c(C)s1,CC50,[16],> 40 µM (active)
Nc1c(-c2ccccc2)cnn1-c1ccc(C(=O)O)cc1,IC50,[17],5.93 µM (active)
Cc1ncsc1C(=O)Nc1nc2c(s1)CC(C)CC2 (stereo not given),AC50,[18],> 52 µM (inactive)
